The results in this text go back to ChEMBL document CHEMBL1201862, “PubChem BioAssay data set” (2004).

Test systems include K562; A498; CCRF-CEM; SNB-19; 786-0; SK-MEL-5; LOX IMVI; UACC-62; OVCAR-8; UO-31; OVCAR-4; TK-10; IGROV-1; Hs-578T; EKVX; U-251; RXF 393; UACC-257; SK-MEL-28; SK-OV-3.
What all share (assay): NCI anticancer screen, dose series, 48 h

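1) Cells in 96-well plates. 2) Compound, 48 h, 5 concentrations. 3) Linear interpolation between surrounding doses. 4) Unreached endpoint = highest concentration. Abbreviation: GI50, concentration required for 50% inhibition of growth.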 The source made the active and inactive calls. Cut-off read from the data, not from the text of the source: active = GI50 up to about 1.1 µM and inactive = higher.

Consider `CC1S/C(=N/c2nnc(-c3ccccc3)o2)NC1=O` (stereo unspecified), for which the GI50 in the assay on K562 is 48 µM (inactive); with A498, > 100 µM (inactive); in the assay with CCRF-CEM it was 14.5 µM (inactive); with SNB-19, 55.6 µM (inactive); in the assay with 786-0, 28.3 µM (inactive); in the assay on SK-MEL-5, 35.9 µM (inactive). In addition, the GI50 in the assay on LOX IMVI is 35.5 µM (inactive); in the assay on UACC-62, 52.6 µM (inactive); in the assay with OVCAR-8, 43.6 µM (inactive); in the assay with UO-31 it was 30.2 µM (inactive); in the assay on OVCAR-4 it was 31.2 µM (inactive); with TK-10 it was 58.7 µM (inactive). The GI50 with IGROV-1 is 43.9 µM (inactive); in the assay on Hs-578T, > 100 µM (inactive); with EKVX, 27 µM (inactive); in the assay on U-251, 26.6 µM (inactive); in the assay on RXF 393, 61.7 µM (inactive); in the assay on UACC-257, 53.8 µM (inactive). For the same compound, the GI50 in the assay on SK-MEL-28 was 74.6 µM (inactive).

In the case of `Cc1c2cccc-2c2cc(O)c3ccccc3c2n1-c1ccc(N(C)C)cc1`, the GI50 in the assay with K562 was 6.81 µM (inactive); in the assay with A498, 17.1 µM (inactive); with CCRF-CEM, 9.77 µM (inactive); in the assay with SNB-19, 16.4 µM (inactive); with 786-0, 12.2 µM (inactive); in the assay on SK-MEL-5 it was 11.8 µM (inactive). The GI50 in the assay on LOX IMVI was 13.4 µM (inactive); in the assay with SK-OV-3 it was 15.8 µM (inactive); in the assay with UACC-62 it was 16 µM (inactive); with OVCAR-8, 15.9 µM (inactive); in the assay on UO-31 it was 11.5 µM (inactive); in the assay with OVCAR-4, 3.37 µM (inactive). The GI50 is 13 µM (inactive) with TK-10; 2.59 µM (inactive) in the assay with IGROV-1; 15 µM (inactive) in the assay with Hs-578T; 2.83 µM (inactive) in the assay with EKVX; 13.2 µM (inactive) in the assay on U-251; 28.1 µM (inactive) in the assay with UACC-257. Besides, the GI50 in the assay on SK-MEL-28 was 17.2 µM (inactive).

Consider `O=C1OS2(OC(=O)c3cccc4cccc2c34)c2ccccc21` (stereo unspecified), for which the GI50 in the assay with K562, with A498, with CCRF-CEM, in the assay with SNB-19, in the assay with 786-0 and in the assay with SK-MEL-5 was > 100 µM (inactive) throughout. Further, the GI50 with LOX IMVI is > 100 µM (inactive); in the assay with UACC-62, > 10 µM (inactive); with OVCAR-8, > 100 µM (inactive); in the assay with UO-31, > 100 µM (inactive); with OVCAR-4, > 100 µM (inactive); in the assay with TK-10, > 100 µM (inactive). For the same compound, the GI50 in the assay on IGROV-1, in the assay on Hs-578T, in the assay on EKVX, with U-251, with RXF 393 and in the assay on UACC-257 was > 100 µM (inactive) in each case. Further, the GI50 in the assay with SK-MEL-28 is > 100 µM (inactive).

`COc1cc2c(c(OC)c1OC)-c1ccc(OC)c(=O)cc1[C@@H](NC(=O)c1ccccc1)CC2`: the GI50 in the assay on K562 was < 0.0114 µM (active); in the assay with A498, < 0.0121 µM (active); in the assay with CCRF-CEM, < 0.01 µM (active); with 786-0 it was 0.0184 µM (active); with SK-MEL-5, 0.0107 µM (active); with LOX IMVI, 0.0142 µM (active). Besides, the GI50 was 0.0646 µM (active) with SK-OV-3; < 0.0113 µM (active) in the assay on UACC-62; 0.449 µM (active) in the assay with UO-31; 0.17 µM (active) with TK-10; 0.0146 µM (active) in the assay with IGROV-1; < 0.0126 µM (active) in the assay on Hs-578T. The GI50 is 5.15 µM (inactive) in the assay on EKVX; 0.0147 µM (active) in the assay on U-251; 0.0234 µM (active) with RXF 393; 0.148 µM (active) in the assay with UACC-257; 1.86 µM (inactive) in the assay with SK-MEL-28.

Take `Nc1nc(Cl)c(CO)c(NCC2(CO)CC(CCc3ccccc3)C2)n1` (stereo unspecified): the GI50 was 1.37 µM (inactive) in the assay on K562; 22.2 µM (inactive) in the assay on A498; 16.5 µM (inactive) in the assay on CCRF-CEM; 61.5 µM (inactive) in the assay with SNB-19; 31.8 µM (inactive) with 786-0; 17.3 µM (inactive) in the assay on SK-MEL-5. The GI50 is 12.5 µM (inactive) with LOX IMVI; 12.7 µM (inactive) in the assay with OVCAR-8; 17.3 µM (inactive) in the assay on UO-31; 14.4 µM (inactive) with OVCAR-4; 80.2 µM (inactive) with TK-10; > 10 µM (inactive) with IGROV-1. In addition, the GI50 with Hs-578T is > 10 µM (inactive); in the assay on EKVX, 19.2 µM (inactive); with U-251, 26.2 µM (inactive); with RXF 393 it was 20.9 µM (inactive); in the assay on UACC-257, 11.4 µM (inactive); in the assay on SK-MEL-28 it was 20.4 µM (inactive).

As for `OC1(c2ccc(-c3ccccc3)cc2)c2ccccc2C2=NCCN21` (stereo unspecified), the GI50 with K562 was 70.5 µM (inactive); in the assay with A498, 31.6 µM (inactive); in the assay with CCRF-CEM, 39.9 µM (inactive); in the assay with SNB-19, 15.4 µM (inactive); in the assay on 786-0 it was 16 µM (inactive); with SK-MEL-5, 19.8 µM (inactive). In addition, the GI50 in the assay on LOX IMVI is 34.8 µM (inactive); with SK-OV-3, 86.3 µM (inactive); in the assay on UACC-62, 20.4 µM (inactive); in the assay on UO-31 it was 30.6 µM (inactive); with OVCAR-4, 56.8 µM (inactive); in the assay on TK-10, > 100 µM (inactive). Besides, the GI50 is 22.4 µM (inactive) with Hs-578T, 37.7 µM (inactive) with U-251, 36.1 µM (inactive) in the assay with UACC-257 and 21.7 µM (inactive) in the assay on SK-MEL-28.

Turning to `O=S(=O)(c1cc(Cl)ccc1Cl)N1CCN(c2ccc(Cl)c(Cl)c2)CC1`, the GI50 is 91.6 µM (inactive) with K562; 25.5 µM (inactive) with A498; 44.8 µM (inactive) in the assay with CCRF-CEM; 14.1 µM (inactive) in the assay on SNB-19; 17.9 µM (inactive) in the assay on 786-0; 22.8 µM (inactive) in the assay on SK-MEL-5. For the same compound, the GI50 in the assay with LOX IMVI is > 100 µM (inactive); in the assay on OVCAR-8 it was 23.3 µM (inactive); in the assay on UO-31, 35.8 µM (inactive); in the assay with OVCAR-4, 16.1 µM (inactive); with TK-10 it was 20.6 µM (inactive); in the assay on IGROV-1, 36.8 µM (inactive). The GI50 is 29.9 µM (inactive) with Hs-578T; 32.2 µM (inactive) with EKVX; 21.7 µM (inactive) in the assay with U-251; 21 µM (inactive) in the assay on RXF 393; 33.3 µM (inactive) in the assay with UACC-257; > 100 µM (inactive) in the assay with SK-MEL-28.

`O=C(O)[C@H](c1ccccc1)[C@@H](C(=O)O)c1ccccc1`: the GI50 in the assay with K562, in the assay with A498, in the assay on SNB-19, in the assay with 786-0, in the assay on SK-MEL-5 and in the assay on LOX IMVI was > 100 µM (inactive) each time. For the same compound, the GI50 in the assay with SK-OV-3, in the assay on UACC-62, in the assay on OVCAR-8, in the assay on UO-31, in the assay on OVCAR-4 and with TK-10 was > 100 µM (inactive) each time. The GI50 in the assay with IGROV-1, in the assay with Hs-578T, in the assay with EKVX, in the assay with U-251, with RXF 393 and with UACC-257 was > 100 µM (inactive) in each case. The GI50 in the assay with SK-MEL-28 was > 100 µM (inactive).

As for `CN(C)/C=N/C1CCC(C(C)(C)C)CC1` (stereo unspecified), the GI50 was 15 µM (inactive) in the assay with K562; 24 µM (inactive) with A498; 20.4 µM (inactive) in the assay with SNB-19; 17.6 µM (inactive) in the assay with 786-0; 17.3 µM (inactive) in the assay on SK-MEL-5; 15.5 µM (inactive) in the assay with LOX IMVI. Moreover, the GI50 was 21.3 µM (inactive) with SK-OV-3; 19 µM (inactive) with UACC-62; 15.6 µM (inactive) in the assay with OVCAR-8; 16.3 µM (inactive) in the assay with UO-31; 18 µM (inactive) with OVCAR-4; 21.8 µM (inactive) in the assay on TK-10. Further, the GI50 was 21.5 µM (inactive) in the assay on IGROV-1; 20.7 µM (inactive) in the assay on Hs-578T; 22.4 µM (inactive) with EKVX; 16.1 µM (inactive) in the assay with U-251; 19.2 µM (inactive) in the assay on RXF 393; 15.7 µM (inactive) with UACC-257. The GI50 in the assay with SK-MEL-28 is 15.9 µM (inactive).

Regarding `Cc1cc2sc(C)[n+](CCCOS(=O)(=O)[O-])c2cc1C`, the GI50 in the assay with K562 was 63.4 µM (inactive); in the assay with A498, > 100 µM (inactive); in the assay with SNB-19 it was > 100 µM (inactive); in the assay on 786-0, > 100 µM (inactive); in the assay with SK-MEL-5, > 100 µM (inactive); in the assay on LOX IMVI, > 100 µM (inactive). Also, the GI50 in the assay on SK-OV-3, in the assay with UACC-62, in the assay with OVCAR-8, in the assay with UO-31, with OVCAR-4 and with TK-10 was > 100 µM (inactive) throughout. Also, the GI50 with IGROV-1 was > 100 µM (inactive); with Hs-578T, 27.9 µM (inactive); with EKVX, > 100 µM (inactive); in the assay with U-251 it was > 100 µM (inactive); with RXF 393, > 100 µM (inactive); in the assay on UACC-257, > 100 µM (inactive). For the same compound, in the assay on SK-MEL-28, the GI50 was > 100 µM (inactive).

Regarding `CCOC(=O)C1=C(C#N)S(=O)(=O)c2c(oc(C)c2C)N1`, the GI50 in the assay on K562, in the assay with A498, with SNB-19, in the assay with 786-0, in the assay on SK-MEL-5 and in the assay with LOX IMVI was > 100 µM (inactive) in each case. In addition, the GI50 in the assay on SK-OV-3, with UACC-62, with OVCAR-8, with UO-31, with OVCAR-4 and in the assay on TK-10 was > 100 µM (inactive) throughout. Besides, the GI50 in the assay on IGROV-1, in the assay with Hs-578T, in the assay with EKVX, in the assay on U-251, in the assay on UACC-257 and in the assay with SK-MEL-28 was > 100 µM (inactive) throughout.
